# Source: patent US20250034551A1, “METHODS AND SYSTEMS FOR HIGH-THROUGHPUT BIOCHEMICAL SCREENS” (THINK BIOSCIENCE, INC., priority 2021, published 2025)
# Entries after “also recorded” stand apart in the source; their conditions may differ. Where two headings read alike, the source gives them in different places.
# B1: protein tyrosine phosphatase 1B (PTP1B), catalytic domain 1-321 (protein)
# chain: MEMEKEFEQIDKSGSWAAIYQDIRHEASDFPCRVAKLPKNKNRNRYRDVSPFDHSRIKLHQEDNDYINASLIKMEEAQRSYILTQGPLPNTCGHFWEMVWEQKSRGVVMLNRVMEKGSLKCAQYWPQKEEKEMIFEDTNLKLTLISEDIKSYYTVRQLELENLTTQETREILHFHYTTWPDFGVPESPASFLNFLFKVRESGSLSPEHGPVVVHCSAGIGRSGTFCLADTCLLLMDKRKDPSSVDIKKVLLEMRKFRMGLIQTADQLRFSYLAVIEGAKFIMGDSSVQDQWKELSHEDLEPPPEHIPPPPRPPKRILEPHN
# Assays:
# [1] = target: T1, PTP1B (Homo sapiens, UniProt P18031); experiment: PTP1B-catalyzed hydrolysis of p-nitrophenyl phosphate (pNPP), in vitro kinetic assay; type: biochemical; conditions: for inhibition of PTP1B activity on pNPP relative to himachalol: 50 nM PTP1B, 5 mM pNPP, 2% or 10% DMSO; for Ki: PTP1B1-321
# T1 sequence (P18031 1-321): B1 chain
# Experimental: PTP1B was purified as described previously. Briefly, the E. coli BL21 (DE3) cells were transformed with a pET21b vector containing the catalytic domain of PTP1B (residues 1-321) modified with a 6× polyhistidine tag on its C-terminus. The cells were grown in 1-L cultures to an OD600 of 0.3-0.6 (37° C., 225 RPM), induced with 500 μM IPTG, and grown at 22° C. for 20 hours. The cells were lysed with B-PERII, and purified PTP1B by using desalting, nickel affinity, and anion exchange chromatography (HiPrep 26/10, HisTrap HP, and HiPrep Q HP, respectively; GE Healthcare). The final protein was stored (50 μM) in HEPES buffer (50 mM, pH 7.5, 0.5 mM TCEP) in 20% glycerol at −80° C.
# (§1) Inhibition was examined by FPP by measuring its influence on PTP1B-catalyzed hydrolysis of p-nitrophenylphosphate (pNPP). Briefly, 100-μL reactions were prepared comprising 50 nM PTP1B, 0.167-20 mM pNPP, and 75-150 μM terpenoids in 50 mM HEPES (pH=7.3) with 50 mM TCEP, 50 μg/mL BSA, and 2-10% DMSO. The reactions were initiated by adding pNPP, and the production of p-nitrophenol (pNP) was monitored by measuring absorbance at 405 nm every 10 s for 5 min (SpectraMax iD3 plate reader). When necessary, the solubility of the terpenoids in individual wells were assessed by plotting the A405 values for each well—including a no-inhibitor well—in a single read.
# Kinetic data was analyzed by using a custom Matlab script supplemented with a user-generated standard curve (e.g., a plot of absorbance at 405 nm vs. pNP concentration in μM, FIG. 15). This script removes datapoints outside of (i) the linear range of the standard curve and/or (ii) the initial rate regime, and it excludes datasets that contain fewer than 10 datapoints after these processing steps. The all datasets were fit using linear regression with Matlab's backslash operator. To determine the half maximal inhibitory concentration (IC50) of himachalol, kinetic models were evaluated by fitting them to standard models of inhibition (e.g., […], noncompetitive, […], and mixed inhibition). Briefly, the procedure included: (i) fitting an initial-rate measurements of pNPP hydrolysis with and without inhibitors, (ii) using the Akaike's Information Criterion (AIC) to compare the best-fit single parameter model to each alternative single-parameter model and accepting the “best-fit” model when the difference in AIC (Δi) exceeded 5 for all comparisons (when this criterion was not met, it was deemed that two or more single-parameter models may be indistinguishable), and (iii) using an F-test to compare a mixed inhibition model to the best-fit single-parameter model and accepting the mixed model if p<0.05. […] The MATLAB function “nlparci” was used to determine the confidence intervals of kinetic parameters, and those intervals were propagated to estimate confidence intervals for each IC50.
# Inhibition by FPP, a costly reagent, was examined with three modifications of the above assay: (i) pNPP concentration was held constant (5 mM). (ii) The 10% DMSO was replaced with 10% of a mixture of methanol: 10 mM NH4OH (7:3). (FPP was purchased as a 1.1 mg/mL solution in methanol: 10 mM NH4OH (7:3)). (ii) IC50 was estimated by using a linear fit to the initial rate data; 95% confidence intervals were propagated on the regression parameters generated using Matlab's “coefCI function”. This approach, which reflects the limited number of measurements afforded by the FPP stock (measurements which include very high and very low initial rates), may result in a greater error than a more standard approach for estimating IC50 (e.g., 4-parameter logistic curves) but nonetheless provides an order of magnitude estimate of potency.
# [2] = solubility of terpenoids in kinetic assay wells (A405); type: physicochemical
# Experimental: as §1
# [3] = target: T1, PTP1B; experiment: melting temperatures determined with differential scanning fluorimetry; type: binding; conditions: n=3
# Source text: (§2) Error bars denote standard error for n=3 technical replicates. […] Error bars denote standard deviation for n=3 technical replicates.
# [4] = target: SARS-COV-2 3CLpro (Severe acute respiratory syndrome coronavirus 2, UniProt P0DTD1); experiment: 3CLpro-catalyzed proteolysis of fluorogenic peptide substrate TSAVLQ_AFC; type: biochemical; conditions: mean and standard error
# [5] = target: RpoZ-MidT fusion with the DENVpro/WNVpro recognition site in the linker (UniProt P0A800)
# [6] = target: 3CLpro (Severe acute respiratory syndrome coronavirus 2, UniProt P0DTD1); experiment: 3CLpro-mediated hydrolysis of FRET peptide Mca-[…](Dnp)K; type: biochemical, SARS-COV-2
# Source text: Förster resonance energy transfer (FRET) peptides provide a facile means of assaying protease inhibitors. These peptides contain a fluorophore and a quencher separated by a protease recognition domain; peptide cleavage separates the fluorophore and quencher and increases fluorescence.
# For 3CLpro, a commercially available substrate was used: Mca-[…](Dnp)K (SEQ ID NO: 1), where Mca ((methoxycoumarin-4-yl) acetyl) was the fluorophore and 2,4-dinitrophenyl (Dnp) was the quencher. Using this assay, inhibition by eucalyptol and α-bisabolol (FIGS. 30B-30C, FIG. 56) was examined.
# [7] = target: T1, PTP1B; experiment: fluorescence-based binding isotherms for BBR; design: binding of BBR to PTP1B in the presence of amorphadiene: dose or concentration left out as unconfirmed; conditions: for ΔFmax of BBR binding isotherm: ±SE
# Source text: as §2
# [8] = target: kinase substrate domain (MidT) fused to the omega subunit of RNA polymerase (RpoZ), no protease recognition site in the linker (UniProt P0A800)
# [9] = target: RpoZ-MidT fusion with the HIV-1 protease recognition sequence in the linker (number of flanking alanines not stated) (UniProt P0A800)
# [10] = target: RpoZ-MidT fusion with AAAA_Ubiquitin_AAAA added to the linker (UniProt P0A800)
# [11] = target: RpoZ-MidT fusion with the PLpro recognition site LRGG in the linker (UniProt P0A800)
# [12] = target: RpoZ-MidT fusion with the 3CLpro recognition sequence in the linker (number of flanking alanines not stated) (UniProt P0A800)
# [13] = target: RpoZ-MidT fusion with the 3CLpro recognition sequence in the linker (number of flanking alanines not stated), P0A800
# [14] = target: RpoZ-MidT fusion with the HIV-1 protease recognition sequence in the linker (number of flanking alanines not stated), P0A800
# RpoZ-MidT fusion with the HIV-1 protease recognition sequence in the linker (number of flanking alanines not stated), P0A800, sequence (P0A800 whole entry, looked up, the tested form may be a part): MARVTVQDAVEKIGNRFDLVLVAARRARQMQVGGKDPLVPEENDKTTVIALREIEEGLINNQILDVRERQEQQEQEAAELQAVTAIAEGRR
# RpoZ-MidT fusion with the 3CLpro recognition sequence in the linker (number of flanking alanines not stated), P0A800, sequence (P0A800 whole entry, looked up, the tested form may be a part): as above
# RpoZ-MidT fusion with the DENVpro/WNVpro recognition site in the linker, sequence (P0A800 whole entry, looked up, the tested form may be a part): as above
# RpoZ-MidT fusion with the 3CLpro recognition sequence in the linker (number of flanking alanines not stated), sequence (P0A800 whole entry, looked up, the tested form may be a part): as above
# RpoZ-MidT fusion with AAAA_Ubiquitin_AAAA added to the linker, sequence (P0A800 whole entry, looked up, the tested form may be a part): as above
# RpoZ-MidT fusion with the HIV-1 protease recognition sequence in the linker (number of flanking alanines not stated), sequence (P0A800 whole entry, looked up, the tested form may be a part): as above
# kinase substrate domain (MidT) fused to the omega subunit of RNA polymerase (RpoZ), no protease recognition site in the linker, sequence (P0A800 whole entry, looked up, the tested form may be a part): as above
# RpoZ-MidT fusion with the PLpro recognition site LRGG in the linker, sequence (P0A800 whole entry, looked up, the tested form may be a part): as above
molecule,measurement,setting,value
CC1=C[C@H]2C(=C(C)CCCC2(C)C)CC1 [β-himachalene],inhibition of PTP1B activity on pNPP relative to himachalol,[1],less inhibitory
same,solubility in kinetic assay,[2],low solubilities
O=C(O)C(=O)Nc1sc2c(c1C(=O)O)CCNC2 [TCS401],effect on melting temperature (stability) of PTP1B,[3],do not
CC(C)=CCC=C(C)C1CC=C(C)CC1 (stereo not drawn) [α-bisabolene],IC50,[4],186 ± 12 µM
CC1=C[C@H]2[C@@H](CC1)[C@](C)(O)CCCC2(C)C [himachalol],Ki,"[1]; fit of competitive model, read-out: Ki, competitive model",24.4 µM
same,Ki,"[1]; fit of mixed model, read-out: Ki,c, mixed model",161 µM
same,Ki,"[1]; fit of mixed model, read-out: Ki,u, mixed model",305 µM
same,Ki,"[1]; fit of noncompetitive model, marked *, read-out: Ki, noncompetitive model (best fit)",280 µM
same,Ki,"[1]; fit of uncompetitive model, read-out: Ki, uncompetitive model",253 µM
same,IC50,"[1]; PTP1B-catalyzed hydrolysis of pNPP, estimated from best-fit kinetic model at 20 mM pNPP, read-out: IC50 for PTP1B",280 ± 59 µM
Cc1cc(-c2c3ccccc3c(Br)c3sc(C)c(C)c23)cc(C)c1O[C@H](Cc1ccccc1)C(=O)O [Ertiprotafib],effect on melting temperature (stability) of PTP1B,[3],destabilize PTP1B
Non-structural protein 2B-3 protease complex from Dengue virus 2 (DENV2 NS2B-NS3),LuxAB luminescence screen of proteases against recognition sites,[5],WNVpro and DNVpro showed no activity in initial screens
α-bisabolol,IC50,[4],30 to 80 µM
same,IC50,"[6]; FRET / fluorogenic peptide, mixture containing α-bisabolol, read-out: IC50 for 3CLpro",3.33 µM
same,IC50,"[6]; fit to percent inhibition, FIG. 30C, read-out: half-maximal inhibitory concentration (IC50) for 3CLpro",~3 µM
Non-structural protein 2B-3 protease complex from West Nile Virus (WNV NS2B-NS3),LuxAB luminescence screen of proteases against recognition sites,[5],WNVpro and DNVpro showed no activity in initial screens
CC12CCC(CC1)C(C)(C)O2 [eucalyptol],inhibitory effect on 3CLpro,"[6]; FRET peptide, FIG. 56",no inhibitory effect; also recorded: not an inhibitor
"CCc1oc2cc(S(=O)(=O)Nc3ccc(S(=O)(=O)Nc4nccs4)cc3)ccc2c1C(=O)c1cc(Br)c(O)c(Br)c1 [BBR, 3-(3,5-dibromo-4-hydroxybenzoyl)-2-ethyl-N-[4-[(2-thiazolylamino)sulfonyl]phenyl]-6-benzofuransulfonamide]",effect on melting temperature (stability) of PTP1B,[3],destabilize PTP1B
same,ΔFmax of BBR binding isotherm,[7]; BBR alone,227000±13000
same,ΔFmax of BBR binding isotherm,[7]; BBR with AD,195000±12000
same,ΔFmax of BBR binding isotherm,[7]; BBR with TCS401,94000±2000
same,binding of BBR to PTP1B in the presence of amorphadiene,[7]; presence of amorphadiene,not significantly disrupted
CC1=C[C@@H]2C(=C(C)CC[C@H]2C(C)C)CC1 [(+)-8-cadinene],IC50,"[1]; major product of terpene synthase A0A0C9VSL7, error 95 CI, read-out: IC50 (PTP1B), estimated",165 µM
3-chymotrypsin-like protease (3CLpro) of SARS-CoV-2,"dynamic range (DR, the change in luminescence caused by protease expression)",[8],10.7±1.2 vs. 6.3±0.9
"CC(C)=CCC/C(C)=C/CC/C(C)=C/CO[P@@](=O)(O)OP(=O)(O)O (stereo in doubt) [FPP, farnesyl pyrophosphate]",IC50,"[1]; [PTP1B]=50 nM, [pNPP]=5 mM, linear fit, rough estimate, read-out: IC50 for PTP1B",~200 µM
C=C1C=CC(C)(C)CCCC(C)=CCC1 [γ-humulene],inhibition of PTP1B activity on pNPP relative to himachalol,[1],less inhibitory
same,solubility in kinetic assay,[2]; precluded IC50 estimates,low solubilities
C=C(C)[C@@H]1CC[C@@H](C)[C@@H]2CCC(C)=C[C@@H]21 [amorphadiene],effect on melting temperature (stability) of PTP1B,[3],do not
same,selectivity PTP1B versus TCPTP,[1],more potent inhibitor of PTP1B than TCPTP
HIV-1 protease,LuxAB luminescence response to protease overexpression,[9],"HIVpro appeared functional with all sites, which was behavior consistent with its reported promiscuity"
same,LuxAB luminescence response to protease overexpression,[10],"HIVpro appeared functional with all sites, which was behavior consistent with its reported promiscuity"
same,LuxAB luminescence response to protease overexpression,[11],"HIVpro appeared functional with all sites, which was behavior consistent with its reported promiscuity"
same,LuxAB luminescence response to protease overexpression,[12],"HIVpro appeared functional with all sites, which was behavior consistent with its reported promiscuity"
B1,dynamic range of LuxAB luminescence between active and inactive PTP1B,[13],"retained the desired B2H activity (e.g., PTP1B inactivation increased luminescence) at a 4- to 5-fold dynamic range"
same,dynamic range of LuxAB luminescence between active and inactive PTP1B,[14],"retained the desired B2H activity (e.g., PTP1B inactivation increased luminescence) at a 4- to 5-fold dynamic range"
